Reference: patent US9127016B2, “Small molecule inhibitors of Dusp6 and uses therefor” (University of Pittsburgh—Of the Commonwealth System of …, priority 2009, dated 2015)

What was measured:
[1] = test system: FGF signaling (d2EGFP reporter); experiment: BCI analog SAR: d2EGFP intensity in transgenic zebrafish embryos by densitometry; format: in vivo; conditions: 20 μM, 24 hpf embryos, 6 h; for Activity (BCI = 100): d2EGFP intensity in the dorsal region
Experimental: Transgenic zebrafish embryos (24 hpf) were treated with 20 μM solution of BCI analogs in 0.5% aq DMSO and fluorescence photomicrographs were taken after 6 h. The effectiveness of BCI analogs was evaluated by densitometry (ImageJ) of d2EGFP intensity in the dorsal region.

[2] = target: T1, recombinant His-tagged Dusp6 (Homo sapiens, UniProt Q16828); experiment: In vitro pERK2 dephosphorylation assay (Western blot); format: biochemical; conditions: 100 μM
T1 construct: His
T1 sequence (Q16828 1-381): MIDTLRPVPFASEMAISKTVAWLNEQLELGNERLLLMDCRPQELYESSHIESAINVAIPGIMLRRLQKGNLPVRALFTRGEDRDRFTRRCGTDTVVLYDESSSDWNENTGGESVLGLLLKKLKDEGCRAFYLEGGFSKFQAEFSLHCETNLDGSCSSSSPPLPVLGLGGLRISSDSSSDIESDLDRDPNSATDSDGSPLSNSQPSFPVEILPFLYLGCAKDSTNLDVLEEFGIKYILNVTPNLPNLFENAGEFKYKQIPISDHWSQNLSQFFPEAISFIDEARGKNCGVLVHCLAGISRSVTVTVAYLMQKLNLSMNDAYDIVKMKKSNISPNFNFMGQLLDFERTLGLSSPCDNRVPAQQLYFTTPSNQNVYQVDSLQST
Experimental: ERK dephosphorylation assays were performed as described previously with several modifications (Lazo, J. S. et al. J Pharmacol Exp Ther 322, 940-7 (2007)). Briefly, recombinant His-tagged Dusp6 (1.5 ng) was incubated for 20 minutes at 25° C. in the presence of 100 μM BCI, 100 μM ICD or 1 mM sodium orthovanadate. Tyrosine and threonine phosphorylated ERK2 (New England Biolabs; 10 ng) was added and reaction mixture (30 mM Tris-HCl, pH 7.0, 75 mM NaCl, 0.67 mM EDTA, 1 mM DTT and 0.033% bovine serum albumin) was incubated at 25° C. for a further 60 min. ERK desphosphorylation was determined by Western blotting using 10% Tris-glycine gels and a monoclonal phospho-p44/42 MAPK antibody (Cell Signaling) at 1:1000 dilution. Total ERK was measured as a loading control using an anti-ERK antibody (Cell Signaling).

[3] = test system: FGF signaling (Tg(Dusp6:d2EGFP)pt6 reporter); experiment: Transgenic zebrafish chemical screen, d2EGFP fluorescence; format: in vivo; conditions: for d2EGFP fluorescence in treated transgenic embryos: 24 hpf embryos, 6-8 hours, analogs even at four-fold higher concentrations
Experimental: Tg(dusp6:d2EGFP)pt6 embryos were obtained by natural crossings and incubated at 28.5° C. until they reached 24 hpf. Five transgenic embryos were placed into each well from a 96-well plate in 200 μl of E3, and a 0.5% DMSO solution was added along with compound from each library at 10 μM. The NCI diversity set (NCl/NIH), the Natural Products library (MicroSource Discovery Systems Inc.) and Phosphatase targeted set (Chembridge) were screened in this study. (E)-2-Benzylidene-3-(cyclohexylamino)-2,3-dihydro-1H-inden-1-one (BCI; also known as NSC150117) was identified as a compound that enhanced fluorescence in treated transgenic embryos. Treated embryos were photographed under the same settings for exposure, gain and magnification for each picture using a MZFLIII (Leica) microscrope and fluorescent illumination for GFP using endow cube (Chroma Technology Corp., Rockingham, Vt.). Qimaging software and the Retiga Exi camera (Qimaging, Burnaby, BC Canada) were used to capture the images.
We previously described the generation of a transgenic zebrafish line, (Tg(Dusp6:d2EGFP)pt6) that expresses destabilized green fluorescent protein (d2EGFP) under the control of FGF signaling (Molina, G. A., et al. BMC Dev Biol 7, 62 (2007)). Using Tg(Dusp6:d2EGFP) embryos as a biosensor for FGF signaling, we screened over 5000 diverse compounds assembled from chemical libraries for small molecule modulators of this pathway. Five transgenic embryos at 24 hours post fertilization (hpf) were arrayed into each well of a 96-well plate containing test compounds at 10 μM. d2EGFP intensity in treated embryos was visually analyzed and compared to vehicle control (0.5% DMSO) after 6-8 hours. […] To confirm that BCI hyperactivated FGF signaling, we treated embryos prior to gastrulation (5 hpf), and we analyzed by whole mount in situ hybridization, the expression of ntl (zebrafish brachyury), a known FGF target gene (Latinkic, B. V. et al. Genes Dev 11, 3265-76 (1997)). […] We next determined the BCI structural features required to enhance FGF signaling. Two analogs, (E)-2-benzylidene-2,3-dihydro-1H-inden-1-one (BI) lacking the cyclohexylamino group, and 3-(cyclohexylamino)-2,3-dihydro-1H-inden-1-one (ICD) lacking the benzylidene group were synthesized).

Structure (SMILES) | in vivo activity relative to BCI, in words [1] | Activity (BCI = 100) [1] | suppression of Dusp6-mediated pERK2 dephosphorylation [2] | d2EGFP fluorescence in treated transgenic embryos [3] | Activity (BCI = 100) ([1]; listed as 3 (BCI)) | d2EGFP expression in the MHB of Tg(Dusp6:d2EGFP); ace mutant embryos ([3]; BCI 10 μM, Fgf8-deficient embryos)
O=C1CC(NC2CCCCC2)c2ccccc21 (centres unmarked) [Compound 17, 3-(Cyclohexylamino)-2,3-dihydro-1H-inden-1-one] | inactive | 0 | did not | inactive | – | –
O=C1/C(=C/c2ccccc2)C(NC2CCCCC2)c2ccccc21 (centres unmarked) [Compound 3, (E)-2-benzylidene-3-(cyclohexylamino)-2,3-dihydro-1H-inden-1-one] | – | – | specifically suppressed Dusp6 activity | enhanced d2EGFP fluorescence in a concentration-dependent manner | 100 | did not induce d2EGFP expression
